ChEMBL document CHEMBL3638798, “Metastin derivative and use thereof” (2013)

Target: KiSS-1 receptor (Homo sapiens, UniProt Q969F8)
Test: Binding Assay: Binding inhibition assay using human GPR54.

Chain of KiSS-1 receptor (Q969F8 whole entry): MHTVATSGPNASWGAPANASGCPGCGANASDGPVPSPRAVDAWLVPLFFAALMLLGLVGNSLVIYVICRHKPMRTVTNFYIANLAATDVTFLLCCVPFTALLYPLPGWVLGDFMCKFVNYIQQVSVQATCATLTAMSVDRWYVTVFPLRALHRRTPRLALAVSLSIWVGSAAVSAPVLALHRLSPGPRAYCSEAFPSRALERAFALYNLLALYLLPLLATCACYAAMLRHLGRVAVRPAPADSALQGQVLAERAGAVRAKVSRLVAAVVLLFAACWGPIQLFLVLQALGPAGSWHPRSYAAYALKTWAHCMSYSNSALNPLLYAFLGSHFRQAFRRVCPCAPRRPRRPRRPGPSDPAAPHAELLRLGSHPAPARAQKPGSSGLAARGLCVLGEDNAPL

- IC50: 0.71 nM
Compound: CNCC(=O)N[C@@H](CC(C)C)C(C)=O
